Legend:
Type in all cases: in vivo
[1] = test system: early watergrass (Echinochloa oryzoides); assay: Test E flooded paddy water application; conditions: Flood, 21 days, scale 0 to 100 (0 no effect, 100 complete control)
Excerpt: (§1) Three plastic pots (ca. 16-cm diameter) per rate were partially filled with sterilized Tama silt loam soil comprising a 35:50:15 ratio of sand, silt and clay and 2.6% organic matter. Separate plantings for each of the three pots were as follows. Seeds from the U.S. of ducksalad (Heteranthera limosa), smallflower umbrella sedge (Cyperus difformis) and purple redstem (Ammannia coccinea), were planted into one 16-cm pot for each rate. Seeds from the U.S. of rice flatsedge (Cyperus iria), bearded (brdd.) sprangletop (Leptochloa fusca ssp. fascicularis), one stand of 9 or 10 water seeded rice seedlings (Oryza sativa cv. ‘Japonica-M202’), and one stand of 6 transplanted rice seedlings (Oryza sativa cv. ‘Japonica-M202’) were planted into one 16-cm pot for each rate. Seeds from the U.S. of barnyardgrass (Echinochloa crus-galli), late watergrass (Echinochloa oryzicola), early watergrass (Echinochloa oryzoides) and junglerice (Echinochloa colona) were planted into one 16-cm pot for each rate. Plantings were sequential so that crop and weed species were at the 2.0 to 2.5-leaf stage at time of treatment.
(§2) Potted plants were grown in a greenhouse with day/night temperature settings of 29.5/26.7° C., and supplemental balanced lighting was provided to maintain a 16-hour photoperiod. Test pots were maintained in the greenhouse until test completion.
(§3) At time of treatment, test pots were flooded to 3 cm above the soil surface, treated by application of test compounds directly to the paddy water, and then maintained at that water depth for the duration of the test. Effects of treatments on rice and weeds were visually evaluated by comparison to untreated controls after 21 days. Plant response ratings, summarized in Table E, are based on a scale of 0 to 100 where 0 is no effect and 100 is complete control. A dash (-) response means no test result.

[2] = test system: water seeded rice seedlings (Oryza sativa cv. ‘Japonica-M202’); assay: Test E flooded paddy water application; conditions: Flood, 21 days, scale 0 to 100 (0 no effect, 100 complete control)
Excerpt: as §1, §2, §3

[3] = test system: rice flatsedge (Cyperus iria); assay: Test E flooded paddy water application; conditions: Flood, 21 days, scale 0 to 100 (0 no effect, 100 complete control)
Excerpt: as §1, §2, §3

[4] = test system: smallflower umbrella sedge (Cyperus difformis); assay: Test E flooded paddy water application; conditions: Flood, 21 days, scale 0 to 100 (0 no effect, 100 complete control)
Excerpt: as §1, §2, §3

[5] = test system: late watergrass (Echinochloa oryzicola); assay: Test E flooded paddy water application; conditions: Flood, 21 days, scale 0 to 100 (0 no effect, 100 complete control)
Excerpt: as §1, §2, §3

[6] = test system: ducksalad (Heteranthera limosa); assay: Test E flooded paddy water application; conditions: Flood, 21 days, scale 0 to 100 (0 no effect, 100 complete control)
Excerpt: as §1, §2, §3

[7] = test system: purple redstem (Ammannia coccinea); assay: Test E flooded paddy water application; conditions: Flood, 21 days, scale 0 to 100 (0 no effect, 100 complete control)
Excerpt: as §1, §2, §3

[8] = test system: bearded (brdd.) sprangletop (Leptochloa fusca ssp. fascicularis); assay: Test E flooded paddy water application; conditions: Flood, 21 days, scale 0 to 100 (0 no effect, 100 complete control)
Excerpt: as §1, §2, §3

[9] = test system: junglerice (Echinochloa colona); assay: Test E flooded paddy water application; conditions: Flood, 21 days, scale 0 to 100 (0 no effect, 100 complete control)
Excerpt: as §1, §2, §3

[10] = test system: transplanted rice seedlings (Oryza sativa cv. ‘Japonica-M202’); assay: Test E flooded paddy water application; conditions: Flood, 21 days, scale 0 to 100 (0 no effect, 100 complete control)
Excerpt: as §1, §2, §3

[11] = test system: barnyardgrass (Echinochloa crus-galli); assay: Test E flooded paddy water application; conditions: Flood, 21 days, scale 0 to 100 (0 no effect, 100 complete control)
Excerpt: as §1, §2, §3

[12] = test system: morningglory (Ipomoea spp.); assay: Test A pre/postemergence
In short: (§4)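 Visual injury scored 0–100 (0 = no effect, 100 = complete control) against untreated controls after about ten days in the greenhouse. Compounds, formulated in non-phytotoxic solvent plus surfactant, were applied preemergence as a directed soil spray and postemergence at the 1- to 2-leaf stage (2–10 cm).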

[13] = test system: giant foxtail (Setaria faberi); assay: Test A pre/postemergence
In short: as §4

[14] = test system: redroot pigweed (Amaranthus retroflexus); assay: Test A pre/postemergence
In short: as §4

[15] = test system: crabgrass (Digitaria sanguinalis); assay: Test A pre/postemergence
In short: as §4

[16] = test system: velvetleaf (Abutilon theophrasti); assay: Test A pre/postemergence
In short: as §4

[17] = test system: barnyardgrass (Echinochloa crus-galli); assay: Test A pre/postemergence
In short: as §4

[18] = Postemergence, 125 g ai/ha, 0 to 100 scale (0 no effect, 100 complete control)
[19] = Postemergence, 500 g ai/ha, 0 to 100 scale (0 no effect, 100 complete control)
[20] = Preemergence, 125 g ai/ha, 0 to 100 scale where 0 is no effect and 100 is complete control, approximately ten days
[21] = Preemergence, 500 g ai/ha, 0 to 100 scale where 0 is no effect and 100 is complete control, approximately ten days

## CCOC(=O)c1nc(-c2ccc(C)c(C)c2)nc(N)c1Br [Compound 70]
[1]; 32 g ai/ha
  Watergrass, Early plant response rating: 0
[1]; 64 g ai/ha
  Watergrass, Early plant response rating: 0
[1]; 125 g ai/ha
  Watergrass, Early plant response rating: 0
[1]; 250 g ai/ha
  Watergrass, Early plant response rating: 0
[1]; 16 g ai/ha
  Plant response rating, Watergrass, Early: 0
[2]; 32 g ai/ha
  Rice, Water Seeded plant response rating: 0
[2]; 64 g ai/ha
  Rice, Water Seeded plant response rating: 0
[2]; 125 g ai/ha
  Rice, Water Seeded plant response rating: 0
[2]; 250 g ai/ha
  Rice, Water Seeded plant response rating: 0
[2]; 16 g ai/ha
  Plant response rating, Rice, Water Seeded: 0
[3]; 32 g ai/ha
  Flatsedge, Rice plant response rating: 0
[3]; 64 g ai/ha
  Flatsedge, Rice plant response rating: 0
[3]; 125 g ai/ha
  Flatsedge, Rice plant response rating: 30
[3]; 250 g ai/ha
  Flatsedge, Rice plant response rating: 65
[3]; 16 g ai/ha
  Plant response rating, Flatsedge, Rice: 0
[4]; 32 g ai/ha
  Sedge, Umbrella plant response rating: 0
[4]; 64 g ai/ha
  Sedge, Umbrella plant response rating: 0
[4]; 125 g ai/ha
  Sedge, Umbrella plant response rating: 0
[4]; 250 g ai/ha
  Sedge, Umbrella plant response rating: 60
[4]; 16 g ai/ha
  Plant response rating, Sedge, Umbrella: 0
[5]; 32 g ai/ha
  Watergrass, Late plant response rating: 0
[5]; 64 g ai/ha
  Watergrass, Late plant response rating: 0
[5]; 125 g ai/ha
  Watergrass, Late plant response rating: 0
[5]; 250 g ai/ha
  Watergrass, Late plant response rating: 0
[5]; 16 g ai/ha
  Plant response rating, Watergrass, Late: 0
[6]; 32 g ai/ha
  Ducksalad plant response rating: 40
[6]; 64 g ai/ha
  Ducksalad plant response rating: 100
[6]; 125 g ai/ha
  Ducksalad plant response rating: 100
[6]; 250 g ai/ha
  Ducksalad plant response rating: 100
[6]; 16 g ai/ha
  Plant response rating, Ducksalad: 0
[7]; 32 g ai/ha
  Redstem plant response rating: 0
[7]; 64 g ai/ha
  Redstem plant response rating: 0
[7]; 125 g ai/ha
  Redstem plant response rating: 0
[7]; 250 g ai/ha
  Redstem plant response rating: 0
[7]; 16 g ai/ha
  Plant response rating, Redstem: 0
[8]; 32 g ai/ha
  Sprangletop, Brdd. plant response rating: 0
[8]; 64 g ai/ha
  Sprangletop, Brdd. plant response rating: 0
[8]; 125 g ai/ha
  Sprangletop, Brdd. plant response rating: 0
[8]; 250 g ai/ha
  Sprangletop, Brdd. plant response rating: 0
[8]; 16 g ai/ha
  Plant response rating, Sprangletop, Brdd.: 0
[9]; 32 g ai/ha
  Junglerice plant response rating: 0
[9]; 64 g ai/ha
  Junglerice plant response rating: 0
[9]; 125 g ai/ha
  Junglerice plant response rating: 0
[9]; 250 g ai/ha
  Junglerice plant response rating: 0
[9]; 16 g ai/ha
  Plant response rating, Junglerice: 0
[10]; 32 g ai/ha
  Rice, Transplanted plant response rating: 0
[10]; 64 g ai/ha
  Rice, Transplanted plant response rating: 0
[10]; 125 g ai/ha
  Rice, Transplanted plant response rating: 0
[10]; 250 g ai/ha
  Rice, Transplanted plant response rating: 0
[10]; 16 g ai/ha
  Plant response rating, Rice, Transplanted: 0
[11]; 32 g ai/ha
  Barnyardgrass plant response rating: 0
[11]; 64 g ai/ha
  Barnyardgrass plant response rating: 0
[11]; 125 g ai/ha
  Barnyardgrass plant response rating: 0
[11]; 250 g ai/ha
  Barnyardgrass plant response rating: 0
[11]; 16 g ai/ha
  Plant response rating, Barnyardgrass: 0
[12]; [18]
  Plant response rating, Morningglory: 0
[12]; [19]
  Plant response rating, Morningglory: 10
[12]; [20]
  Plant response rating, Morningglory: 0
[12]; [21]
  Plant response rating, Morningglory: 0
[13]; [18]
  Plant response rating, Foxtail, Giant: 0
[13]; [19]
  Plant response rating, Foxtail, Giant: 0
[13]; [20]
  Plant response rating, Foxtail, Giant: 5
[13]; [21]
  Plant response rating, Foxtail, Giant: 5
[14]; [18]
  Plant response rating, Pigweed: 15
[14]; [19]
  Plant response rating, Pigweed: 20
[14]; [20]
  Plant response rating, Pigweed: 0
[14]; [21]
  Plant response rating, Pigweed: 10
[15]; [18]
  Plant response rating, Crabgrass: 0
[15]; [19]
  Plant response rating, Crabgrass: 20
[15]; [20]
  Plant response rating, Crabgrass: 5
[15]; [21]
  Plant response rating, Crabgrass: 20
[16]; [18]
  Plant response rating, Velvetleaf: 35
[16]; [19]
  Plant response rating, Velvetleaf: 60
[16]; [20]
  Plant response rating, Velvetleaf: 20
[16]; [21]
  Plant response rating, Velvetleaf: 35
[17]; [18]
  Plant response rating, Barnyardgrass: 0
[17]; [19]
  Plant response rating, Barnyardgrass: 0
[17]; [20]
  Plant response rating, Barnyardgrass: 0
[17]; [21]
  Plant response rating, Barnyardgrass: 0

Reference: patent publication US8802597B2, “Herbicidal pyrimidines” (E I du Pont de Nemours and Company, priority 2003, dated 2014)
